Where two headings read alike, the source gives them in different places.
What was measured:
CYP3A4 = molecular target: T1, CYP3A4 (Homo sapiens, UniProt P08684); assay: Evaluation of CYP3A4 activity inhibitory action; format: in vitro ADME; details: Human CYP3A4BR EasyCYP Bactosomes, 7-Benzyloxy-4-(trifluoromethyl)-coumarin
T1 construct: purchased Cypex, Ltd; host or cells: E. coli membranes (Bactosomes)
Experimental: Evaluation of CYP3A4 Activity Inhibitory Action
To a 50 mM potassium phosphate buffer solution (pH 7.4), 5 nM Human CYP3A4BR EasyCYP Bactosomes (Cypex, Ltd.), 50 μM 7-Benzyloxy-4-(trifluoromethyl)-coumarin, cofactor mix (0.0081 mM β-NADP^+, 0.4 mM G-6-P, 0.4 mM MgCl2, and 0.2 U/mL G-6-P DH(Y)), and 0.01% Pluronic F-127 were added, and the mixture was incubated for 45 minutes at 37° C. The reaction was initiated by adding the cofactor mix. After the incubation, 0.5 M Tris base/acetonitrile (20:80) was added thereto as a reaction terminating liquid, and the resulting mixture was stirred. Subsequently, the fluorescence intensity (excitation: 405 nm, emission: 535 nm) was measured. The reaction was carried out in duplicate. The results are presented as the inhibition rate at 10 μM of the test compound.

human Cav3.2 channels [1] = molecular target: T2, human Cav3.2 channels (Homo sapiens, UniProt O95180); assay: Electrophysiological evaluation, whole-cell patch-clamp with automatic patch-clamp system; format: cell-based; details: for inhibition at 0.3 µM: holding potential −80 mV, read-out: Cav3.2 channel current inhibition ratio at 0.3 μM of test compound (holding potential −80 mV)
T2 construct: expressed in transfected cells; host or cells: HEK293 cells (ATCC No. CRL-1573), plasmid pcDNA3.1(+)
T2 sequence (O95180 whole entry): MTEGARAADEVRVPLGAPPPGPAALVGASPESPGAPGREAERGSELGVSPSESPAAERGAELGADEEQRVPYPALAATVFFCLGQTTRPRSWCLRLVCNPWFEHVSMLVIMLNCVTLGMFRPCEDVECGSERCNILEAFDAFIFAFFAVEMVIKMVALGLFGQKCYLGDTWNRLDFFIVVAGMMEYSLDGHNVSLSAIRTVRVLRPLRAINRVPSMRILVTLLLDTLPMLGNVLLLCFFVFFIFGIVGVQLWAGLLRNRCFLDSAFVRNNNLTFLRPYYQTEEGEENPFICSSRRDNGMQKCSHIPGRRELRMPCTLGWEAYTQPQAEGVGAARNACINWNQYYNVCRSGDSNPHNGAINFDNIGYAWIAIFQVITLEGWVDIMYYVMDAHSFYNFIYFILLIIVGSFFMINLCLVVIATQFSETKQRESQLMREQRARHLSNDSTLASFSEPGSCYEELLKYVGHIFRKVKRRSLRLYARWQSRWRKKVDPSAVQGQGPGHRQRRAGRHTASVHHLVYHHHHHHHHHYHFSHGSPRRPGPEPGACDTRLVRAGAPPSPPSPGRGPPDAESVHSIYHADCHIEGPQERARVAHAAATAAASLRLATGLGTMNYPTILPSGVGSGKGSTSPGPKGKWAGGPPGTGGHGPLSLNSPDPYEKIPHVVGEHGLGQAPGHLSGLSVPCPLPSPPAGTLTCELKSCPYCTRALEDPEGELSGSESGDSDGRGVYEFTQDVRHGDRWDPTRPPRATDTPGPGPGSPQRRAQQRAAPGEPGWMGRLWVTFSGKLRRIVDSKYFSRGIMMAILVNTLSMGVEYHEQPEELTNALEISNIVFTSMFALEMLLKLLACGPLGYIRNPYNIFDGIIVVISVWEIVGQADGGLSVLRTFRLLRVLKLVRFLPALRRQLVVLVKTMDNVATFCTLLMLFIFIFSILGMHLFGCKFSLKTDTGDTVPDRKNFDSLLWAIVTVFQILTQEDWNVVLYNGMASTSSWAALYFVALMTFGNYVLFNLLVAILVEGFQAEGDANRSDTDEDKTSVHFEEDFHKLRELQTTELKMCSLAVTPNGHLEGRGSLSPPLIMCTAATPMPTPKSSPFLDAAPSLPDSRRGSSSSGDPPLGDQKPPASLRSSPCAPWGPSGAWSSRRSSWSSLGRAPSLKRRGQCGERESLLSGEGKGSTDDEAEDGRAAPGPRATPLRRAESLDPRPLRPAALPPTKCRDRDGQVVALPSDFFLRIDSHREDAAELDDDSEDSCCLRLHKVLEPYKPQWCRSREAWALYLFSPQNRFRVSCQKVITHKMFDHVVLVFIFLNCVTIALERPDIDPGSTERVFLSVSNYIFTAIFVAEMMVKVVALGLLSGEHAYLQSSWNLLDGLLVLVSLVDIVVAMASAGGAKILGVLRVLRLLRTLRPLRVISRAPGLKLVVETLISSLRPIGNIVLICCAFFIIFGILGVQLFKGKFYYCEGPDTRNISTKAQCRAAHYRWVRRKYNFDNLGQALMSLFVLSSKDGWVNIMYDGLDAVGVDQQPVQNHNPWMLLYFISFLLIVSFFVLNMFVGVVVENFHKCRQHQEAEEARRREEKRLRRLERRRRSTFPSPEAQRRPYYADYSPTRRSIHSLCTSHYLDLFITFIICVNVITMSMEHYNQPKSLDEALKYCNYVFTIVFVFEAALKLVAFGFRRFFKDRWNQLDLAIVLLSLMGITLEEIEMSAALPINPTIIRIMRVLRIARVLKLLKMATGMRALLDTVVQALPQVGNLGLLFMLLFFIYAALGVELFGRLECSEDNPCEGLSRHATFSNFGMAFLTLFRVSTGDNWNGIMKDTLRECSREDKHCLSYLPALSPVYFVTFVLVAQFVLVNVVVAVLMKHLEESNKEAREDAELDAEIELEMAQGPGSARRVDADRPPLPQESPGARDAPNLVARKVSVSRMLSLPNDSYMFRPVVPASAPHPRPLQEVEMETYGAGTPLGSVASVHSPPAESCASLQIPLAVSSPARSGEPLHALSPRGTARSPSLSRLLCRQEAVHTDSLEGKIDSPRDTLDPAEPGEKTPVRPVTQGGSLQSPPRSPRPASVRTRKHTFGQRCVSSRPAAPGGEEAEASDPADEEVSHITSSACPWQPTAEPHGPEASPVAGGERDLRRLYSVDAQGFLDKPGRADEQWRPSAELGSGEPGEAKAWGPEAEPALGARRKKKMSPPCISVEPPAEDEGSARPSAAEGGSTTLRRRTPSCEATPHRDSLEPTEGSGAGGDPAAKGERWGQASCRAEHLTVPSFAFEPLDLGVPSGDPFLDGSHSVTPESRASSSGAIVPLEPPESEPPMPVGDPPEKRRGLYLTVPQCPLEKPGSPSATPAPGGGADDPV
Summary of the method: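 Stable human Cav3.2 cell line, automated whole-cell patch clamp at room temperature. Peak inward current on 100 msec steps to −20 mV every 10 sec; five concentrations applied cumulatively by perfusion. Inhibition scored at 0.3 μM compound from −80 mV holding, or 3 μM from −100 mV.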

human Cav3.2 channels [2] = molecular target: T2, human Cav3.2 channels; assay: Intracellular calcium concentration measurement (Fluo-4 AM) in stable cells expressing human Cav3.2 channels, buffer A / buffer B; format: cell-based
Summary of the method: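 State-dependent Cav3.2 inhibition compared in two buffers differing in potassium equilibrium potential (−92 vs −110 mV). Stable HEK293 line, Fluo-4 dye; compound 15 min, room temperature, dark, then KCl addition (83.8 or 91.8 mM) triggers calcium influx read 10 s; IC50 from peak increment over baseline.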

[3] = system: mouse partial sciatic nerve ligation (PSNL) model; assay: Mechanical allodynia in a mouse partial sciatic nerve ligation (PSNL) model, intraperitoneal administration; format: in vivo; details: intraperitoneally administered, 20 to 30 mg/kg, compared to the vehicle group
Experimental: Mechanical Allodynia in a Mouse Partial Sciatic Nerve Ligation (PSNL) Model
(§1) Production of a mouse PSNL model was carried out according to the method of Seltzer, et al. A mouse was subjected to inhalation anesthesia with isoflurane. The femoral region of the mouse was shaved and disinfected with isodine. The skin on the thighbone of the mouse was incised, the fascia underneath the skin was cut, and the biceps femoris muscle was divided at a site between the heads of muscles. The sciatic nerve underneath the incision was checked, and then the sciatic nerve was detached without damaging the nerve. The needle of an 8-0 silk suture with a needle was passed through the sciatic nerve so as to penetrate through the nerve, and thus a portion of about ½ to ⅓ of the sciatic nerve was ligated. The skin was sutured, and the mouse was kept for about 7 days. The surgery of a Sham control mouse was performed only for checking of the sciatic nerve, and the skin was sutured.
(§2) The measurement of pain threshold was carried out after the mouse was transferred into a cage for measurement and was waited until exploratory behavior had disappeared. […] The 50% threshold was calculated by an up-down method by referring to the method of Chaplan, et al. (Quantitative assessment of tactile allodynia in the […]. J Neurosci Methods, 53, 1994, 55-63). […]

mouse PSNL model = assay: Mechanical allodynia in mouse PSNL model, peroral administration; format: in vivo; details: perorally administered, 10 mg/kg and 30 mg/kg, compared to the vehicle group
Experimental: Mechanical Allodynia in Mouse PSNL Model
as §1, §2

T1 sequence (P08684 whole entry): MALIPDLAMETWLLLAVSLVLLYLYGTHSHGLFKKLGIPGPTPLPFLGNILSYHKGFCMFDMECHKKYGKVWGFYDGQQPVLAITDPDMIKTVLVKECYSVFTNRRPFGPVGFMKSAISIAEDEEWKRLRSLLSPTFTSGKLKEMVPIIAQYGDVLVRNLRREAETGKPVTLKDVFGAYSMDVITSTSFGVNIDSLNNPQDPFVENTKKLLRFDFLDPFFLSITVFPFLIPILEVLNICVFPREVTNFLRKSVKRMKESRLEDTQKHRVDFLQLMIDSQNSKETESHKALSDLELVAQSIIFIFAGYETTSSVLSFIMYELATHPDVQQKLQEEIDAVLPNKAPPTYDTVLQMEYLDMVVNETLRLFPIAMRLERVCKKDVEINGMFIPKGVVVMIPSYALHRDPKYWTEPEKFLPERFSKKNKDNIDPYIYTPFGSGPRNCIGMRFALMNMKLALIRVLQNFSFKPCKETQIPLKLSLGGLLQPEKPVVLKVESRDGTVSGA

SMILES	CYP3A4 activity inhibition ratio at 10 μM of test compound (CYP3A4)	inhibition at 0.3 µM (human Cav3.2 channels [1])	Cav3.2 channel current inhibition ratio at 3 μM of test compound (holding potential −100 mV) (human Cav3.2 channels [1])	IC50 (human Cav3.2 channels [2]; Table 1, buffer A, equilibrium potential of potassium −92 mV, read-out: Inhibitory action of buffer A (inactivated state))	IC50 (human Cav3.2 channels [2]; Table 1, buffer B, equilibrium potential of potassium −110 mV, read-out: Inhibitory action of buffer B (resting state or closed state))	mechanical allodynia (pain threshold, von Frey filament test) [3]	mechanical allodynia (pain threshold, von Frey filament test) (mouse PSNL model)	IC50 (human Cav3.2 channels [2]; Tables 2 to 6, buffer A, equilibrium potential of potassium −92 mV, read-out: Inhibitory action of buffer A (inactivated state))
C[C@@H](NC(=O)C1CC1c1nc2ccccc2[nH]1)c1ccc(OCC(F)(F)F)s1 (single isomer, unassigned) [Example 3A]	12.7%	60%	13%	≤ 100 nM	> 10000 nM	suppressed mechanical allodynia statistically significantly	–	–
C[C@@H](NC(=O)[C@H]1C[C@@H]1c1nc2ccccc2[nH]1)c1cc2cc(F)ccc2o1 [Example 65, (1S,2S)-2-(1H-benzo[d]imidazol-2-yl)-N—((R)-1-(5-fluorobenzofuran-2-yl)ethyl)cyclopropane-1-carboxamide]	4.2%	81%	49%	–	–	–	suppressed mechanical allodynia statistically significantly	≤ 100 nM

Reference: US11420944B2, “Voltage-dependent t-type calcium channel blocker” (Nippon Chemiphar Co., Ltd., priority 2016, dated 2022)
